Assays:
Assay in all cases: relative viability (nuclei count vs DMSO), 5 days (fraction); higher = more cells survive
SK-MES-1 = test system: SK-MES-1
Procedure, shortened: (§1)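 Cells from lung cancer lines were seeded into 1536-well plates and, one day later, dosed by pin tool. Treatments were either a single drug or a fixed dose of an anchor drug with five library-drug doses (not always all listed) in √10 steps. After 5 days, nuclei were stained in a one-step fixation (final 0.05% Triton X-100, 1% formaldehyde, 1 ug/ml Hoechst) and counted on 4× images, and relative viability is the treated-to-vehicle nuclei ratio, as the median of duplicate plates.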

HCC-366 = test system: HCC-366
Procedure, shortened: as §1

NCI-H1734 = test system: NCI-H1734
Procedure, shortened: as §1

NCI-H1437 = test system: NCI-H1437
Procedure, shortened: as §1

NCI-H1355 = test system: NCI-H1355
Procedure, shortened: as §1

NCI-H1792 = test system: NCI-H1792
Procedure, shortened: as §1

SK-LU-1 = test system: SK-LU-1
Procedure, shortened: as §1

HCC-827 = test system: HCC-827
Procedure, shortened: as §1

NCI-H647 = test system: NCI-H647
Procedure, shortened: as §1

NCI-H2009 = test system: NCI-H2009
Procedure, shortened: as §1

NCI-H2087 = test system: NCI-H2087
Procedure, shortened: as §1

HARA = test system: HARA
Procedure, shortened: as §1

EKVX = test system: EKVX
Procedure, shortened: as §1

NCI-H1395 = test system: NCI-H1395
Procedure, shortened: as §1

NCI-H2170 = test system: NCI-H2170
Procedure, shortened: as §1

NCI-H1993 = test system: NCI-H1993
Procedure, shortened: as §1

NCI-H2342 = test system: NCI-H2342
Procedure, shortened: as §1

NCI-H661 = test system: NCI-H661
Procedure, shortened: as §1

BEN = test system: BEN
Procedure, shortened: as §1

LOU-NH91 = test system: LOU-NH91
Procedure, shortened: as §1

NCI-H2405 = test system: NCI-H2405
Procedure, shortened: as §1

NCI-H522 = test system: NCI-H522
Procedure, shortened: as §1

SMILES: CC(=O)O[C@@]12CO[C@@H]1C[C@H](O)[C@@]1(C)C(=O)[C@H](O)C3=C(C)[C@@H](OC(=O)[C@H](O)[C@@H](NC(=O)OC(C)(C)C)c4ccccc4)C[C@@](O)([C@@H](OC(=O)c4ccccc4)[C@H]21)C3(C)C [Docetaxel] + Nc1nc2[nH]cc(CCc3ccc(C(=O)N[C@@H](CCC(=O)O)C(=O)O)cc3)c2c(=O)[nH]1 [Pemetrexed] (partner 0.2 µM)
- relative viability (SK-MES-1; first compound 0.0002 µM): 0.971
- relative viability (SK-MES-1; first compound 0.000632 µM): 0.907
- relative viability (SK-MES-1; first compound 0.002 µM): 0.499
- relative viability (SK-MES-1; first compound 0.006325 µM): 0.341
- relative viability (SK-MES-1; first compound 0.02 µM): 0.197
- relative viability (HCC-366; first compound 0.0002 µM): 0.162
- relative viability (HCC-366; first compound 0.000632 µM): 0.16
- relative viability (HCC-366; first compound 0.002 µM): 0.0677
- relative viability (HCC-366; first compound 0.006325 µM): 0.0361
- relative viability (HCC-366; first compound 0.02 µM): 0.0202
- relative viability (NCI-H1734; first compound 0.0002 µM): 0.425
- relative viability (NCI-H1734; first compound 0.000632 µM): 0.521
- relative viability (NCI-H1734; first compound 0.002 µM): 0.405
- relative viability (NCI-H1734; first compound 0.006325 µM): 0.303
- relative viability (NCI-H1734; first compound 0.02 µM): 0.239
- relative viability (NCI-H1437; first compound 0.0002 µM): 0.3
- relative viability (NCI-H1437; first compound 0.000632 µM): 0.361
- relative viability (NCI-H1437; first compound 0.002 µM): 0.32
- relative viability (NCI-H1437; first compound 0.006325 µM): 0.288
- relative viability (NCI-H1437; first compound 0.02 µM): 0.213
- relative viability (NCI-H1355; first compound 0.0002 µM): 1.09
- relative viability (NCI-H1355; first compound 0.000632 µM): 0.958
- relative viability (NCI-H1355; first compound 0.002 µM): 0.789
- relative viability (NCI-H1355; first compound 0.006325 µM): 0.309
- relative viability (NCI-H1355; first compound 0.02 µM): 0.198
- relative viability (NCI-H1792; first compound 0.0002 µM): 0.764
- relative viability (NCI-H1792; first compound 0.000632 µM): 0.533
- relative viability (NCI-H1792; first compound 0.002 µM): 0.223
- relative viability (NCI-H1792; first compound 0.006325 µM): 0.105
- relative viability (NCI-H1792; first compound 0.02 µM): 0.0705
- relative viability (SK-LU-1; first compound 0.0002 µM): 0.947
- relative viability (SK-LU-1; first compound 0.000632 µM): 0.725
- relative viability (SK-LU-1; first compound 0.002 µM): 0.535
- relative viability (SK-LU-1; first compound 0.006325 µM): 0.337
- relative viability (SK-LU-1; first compound 0.02 µM): 0.258
- relative viability (HCC-827; first compound 0.0002 µM): 0.183
- relative viability (HCC-827; first compound 0.000632 µM): 0.282
- relative viability (HCC-827; first compound 0.006325 µM): 0.238
- relative viability (HCC-827; first compound 0.02 µM): 0.215
- relative viability (NCI-H647; first compound 0.0002 µM): 0.175
- relative viability (NCI-H647; first compound 0.000632 µM): 0.142
- relative viability (NCI-H647; first compound 0.002 µM): 0.103
- relative viability (NCI-H647; first compound 0.006325 µM): 0.122
- relative viability (NCI-H647; first compound 0.02 µM): 0.0856
- relative viability (NCI-H2009; first compound 0.0002 µM): 0.946
- relative viability (NCI-H2009; first compound 0.000632 µM): 1.03
- relative viability (NCI-H2009; first compound 0.002 µM): 0.956
- relative viability (NCI-H2009; first compound 0.006325 µM): 0.733
- relative viability (NCI-H2009; first compound 0.02 µM): 0.27
- relative viability (NCI-H2087; first compound 0.0002 µM): 0.553
- relative viability (NCI-H2087; first compound 0.000632 µM): 0.509
- relative viability (NCI-H2087; first compound 0.002 µM): 0.24
- relative viability (NCI-H2087; first compound 0.006325 µM): 0.168
- relative viability (NCI-H2087; first compound 0.02 µM): 0.104
- relative viability (HARA; first compound 0.0002 µM): 0.196
- relative viability (HARA; first compound 0.000632 µM): 0.247
- relative viability (HARA; first compound 0.002 µM): 0.247
- relative viability (HARA; first compound 0.006325 µM): 0.188
- relative viability (HARA; first compound 0.02 µM): 0.142
- relative viability (EKVX; first compound 0.0002 µM): 0.377
- relative viability (EKVX; first compound 0.000632 µM): 0.392
- relative viability (EKVX; first compound 0.002 µM): 0.288
- relative viability (EKVX; first compound 0.006325 µM): 0.209
- relative viability (EKVX; first compound 0.02 µM): 0.193
- relative viability (NCI-H1395; first compound 0.0002 µM): 0.814
- relative viability (NCI-H1395; first compound 0.000632 µM): 0.706
- relative viability (NCI-H1395; first compound 0.002 µM): 0.652
- relative viability (NCI-H1395; first compound 0.006325 µM): 0.342
- relative viability (NCI-H1395; first compound 0.02 µM): 0.246
- relative viability (NCI-H2170; first compound 0.0002 µM): 0.26
- relative viability (NCI-H2170; first compound 0.000632 µM): 0.257
- relative viability (NCI-H2170; first compound 0.002 µM): 0.251
- relative viability (NCI-H2170; first compound 0.006325 µM): 0.177
- relative viability (NCI-H2170; first compound 0.02 µM): 0.174
- relative viability (NCI-H1993; first compound 0.0002 µM): 0.641
- relative viability (NCI-H1993; first compound 0.000632 µM): 0.762
- relative viability (NCI-H1993; first compound 0.002 µM): 0.64
- relative viability (NCI-H1993; first compound 0.006325 µM): 0.444
- relative viability (NCI-H1993; first compound 0.02 µM): 0.391
- relative viability (NCI-H2342; first compound 0.0002 µM): 0.731
- relative viability (NCI-H2342; first compound 0.000632 µM): 0.745
- relative viability (NCI-H2342; first compound 0.002 µM): 0.584
- relative viability (NCI-H2342; first compound 0.006325 µM): 0.495
- relative viability (NCI-H2342; first compound 0.02 µM): 0.493
- relative viability (NCI-H661; first compound 0.0002 µM): 0.947
- relative viability (NCI-H661; first compound 0.000632 µM): 0.944
- relative viability (NCI-H661; first compound 0.002 µM): 0.799
- relative viability (NCI-H661; first compound 0.006325 µM): 0.572
- relative viability (NCI-H661; first compound 0.02 µM): 0.366
- relative viability (BEN; first compound 0.0002 µM): 0.68
- relative viability (BEN; first compound 0.000632 µM): 0.795
- relative viability (BEN; first compound 0.002 µM): 0.442
- relative viability (BEN; first compound 0.006325 µM): 0.449
- relative viability (BEN; first compound 0.02 µM): 0.325
- relative viability (LOU-NH91; first compound 0.0002 µM): 0.373
- relative viability (LOU-NH91; first compound 0.000632 µM): 0.367
- relative viability (LOU-NH91; first compound 0.002 µM): 0.311
- relative viability (LOU-NH91; first compound 0.006325 µM): 0.338
- relative viability (LOU-NH91; first compound 0.02 µM): 0.312
- relative viability (NCI-H2405; first compound 0.0002 µM): 1.01
- relative viability (NCI-H2405; first compound 0.000632 µM): 0.754
- relative viability (NCI-H2405; first compound 0.002 µM): 0.671
- relative viability (NCI-H2405; first compound 0.006325 µM): 0.405
- relative viability (NCI-H2405; first compound 0.02 µM): 0.389
- relative viability (NCI-H522; first compound 0.0002 µM): 1.06
- relative viability (NCI-H522; first compound 0.000632 µM): 0.814
- relative viability (NCI-H522; first compound 0.002 µM): 0.737
- relative viability (NCI-H522; first compound 0.006325 µM): 0.636
- relative viability (NCI-H522; first compound 0.02 µM): 0.355

Reference: the supplement of paper PMC10307832
